# Assay results: ChEMBL document CHEMBL5532755, “Unveiling the potent activity of a synthetic ion transporter against multidrug-resistant Gram-positive bacteria and biofilms” (RSC Med Chem, 2024)
# Legend:
# Assay type in all cases: functional
# Escherichia coli = assay: Antibacterial activity against Escherichia coli MTCC 443 incubated for 16 to 18 hrs by broth dilution method; settings: time 16-18 hrs
# [1] = system: Staphylococcus epidermidis; assay: Antibacterial activity against Staphylococcus epidermidis MTCC 3615 incubated for 16 to 18 hrs by broth dilution method; settings: time 16-18 hrs
# Staphylococcus aureus [2] = assay: Antibacterial activity against vancomycin-resistant Staphylococcus aureus 4 incubated for 16 to 18 hrs by broth dilution method; settings: time 16-18 hrs
# Staphylococcus aureus [3] = assay: Antibacterial activity against vancomycin-resistant Staphylococcus aureus 1 incubated for 16 to 18 hrs by broth dilution method; settings: time 16-18 hrs
# Enterococcus faecium [4] = assay: Antibacterial activity against vancomycin-resistant Enterococcus faecium 909 incubated for 16 to 18 hrs by broth dilution method; settings: time 16-18 hrs
# Enterococcus faecium [5] = assay: Antibacterial activity against Enterococcus faecium ATCC 19634 incubated for 16 to 18 hrs by broth dilution method; settings: time 16-18 hrs
# Enterococcus faecium [6] = assay: Antibacterial activity against vancomycin-resistant Enterococcus faecium 903 incubated for 16 to 18 hrs by broth dilution method; settings: time 16-18 hrs
# Staphylococcus aureus [7] = assay: Induction of resistance development in methicillin-resistant Staphylococcus aureus ATCC 33591 assessed as fold increase in MIC measured after 3 days by broth dilution method relative to control; settings: time 3.0 day
# Staphylococcus aureus [8] = assay: Induction of resistance development in methicillin-resistant Staphylococcus aureus ATCC 33591 assessed as fold increase in MIC measured after 10 days by broth dilution method relative to control; settings: time 10.0 day
# Staphylococcus aureus [9] = assay: Induction of resistance development in methicillin-resistant Staphylococcus aureus ATCC 33591 assessed as fold increase in MIC measured after 5 days by broth dilution method relative to control; settings: time 5.0 day
molecule,measurement,setting,value
COLISTIN,MIC,Escherichia coli,1 µg/mL
CC(=O)NC[C@H]1CN(c2ccc(N3CCOCC3)c(F)c2)C(=O)O1 [LINEZOLID],MIC,[1],2 µg/mL
same,MIC,Staphylococcus aureus [2],1 µg/mL
same,MIC,Staphylococcus aureus [3],1 µg/mL
same,MIC,Enterococcus faecium [4],2 µg/mL
same,MIC,Enterococcus faecium [5],4 µg/mL
same,MIC,Enterococcus faecium [6],32 µg/mL
CC(=O)O[C@H]1C[C@@]2(C)[C@@H](C[C@@H](O)[C@H]3[C@@]4(C)CC[C@@H](O)[C@@H](C)[C@@H]4CC[C@@]32C)/C1=C(\CCC=C(C)C)C(=O)O,fold change (FC),Staphylococcus aureus [7],32
same,fold change (FC),Staphylococcus aureus [8],4000
same,fold change (FC),Staphylococcus aureus [9],128
